# Test results taken from patent publication US20120214862A1, “MODULATION OF FACTOR 7 EXPRESSION” (ISIS Pharmaceuticals, Inc., priority 2009, published 2012).
# Read-outs that look alike come from different tables or passages of the source. In the oligonucleotide strings, read from the 5' end, every base follows the letter of its sugar. An asterisk marks phosphorothioate; unmarked linkages are phosphodiester. Other units and linkages are bracketed, terminal groups are in braces. A string of capitals states the bases alone. e = 2'-O-(2-methoxyethyl) (MOE); [5mC] = 5-methylcytosine; d = 2'-deoxy (DNA)
# Key:
# human Factor 7 mRNA = experiment: Antisense inhibition of human Factor 7 mRNA in HepB3 cells, lipofectin, 50 nM, real-time RT-PCR; type: cell-based; conditions: HepB3 cells; for % Inhibition (human Factor 7 mRNA): Example 1, 50 nM, ~24 h, relative to untreated control cells
# Method in brief: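 Percent inhibition, untreated cells as reference: derived from RNA collected about 24 hours post-transfection of 4,000-cell wells, with the human RTS 2927 primer probe set and adjustment for total RNA content (RIBOGREEN®).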
# [1] = test system: intrinsic pathway of blood coagulation; experiment: Activated Partial Thromboplastin Time (aPTT) in platelet poor plasma of treated mice, reported as INR; type: in vivo, mouse
# Procedure: (§1) Prothrombin Time (PT) and Activated Partial Thromboplastin Time (aPTT) were measured using platelet poor plasma (PPP) from mice treated with ISIS 403102. PT and aPTT values provided in Table 20 are reported as International Normalized Ratio (INR) values. INR values for PT and aPTT were determined by dividing the PT or aPTT value for the experimental group by the PT or aPTT for the PBS treated group. This ratio was then raised to the power of the International Sensitivity Index (ISI) of the tissue factor used.
# as §1, with “in Table 22 are reported” for “in Table 20 are reported”, “experimental group (i.e. 50 mg/kg treatment with ISIS 403102) by the” for “experimental group by the”
# as §1, with “in Table 24 are reported” for “in Table 20 are reported”, “experimental group (i.e. 50 mg/kg treatment with ISIS 403102) by the” for “experimental group by the”
# murine Factor 7 protein = experiment: Plasma Factor 7 protein, Factor 7 chromogenic assay (Hyphen BioMed), BALB/c mice; type: in vivo, mouse; conditions: for % inhibition of murine Factor 7 protein (plasma): relative to PBS control
# Procedure: BALB/c mice were treated with ISIS 403102 ([…], target site 11336, incorporated herein as SEQ ID NO: 161). BALB/c mice were injected subcutaneously with 5 mg/kg, 10 mg/kg, 25 mg/kg, or 50 mg/kg of ISIS 403102 twice a week for 3 weeks. A control group of mice was injected subcutaneously with PBS twice a week for 3 weeks. After the treatment period, whole liver was collected for RNA and protein analysis, and plasma was collected for clotting analysis (PT/aPTT).
# Plasma Factor 7 protein was measured using a Factor 7 chromogenic assay (Hyphen BioMed). […] Results are presented as percent inhibition of Factor 7, relative to control.
# BALB/c mice = conditions: mouse, in vivo
# [2] = lipofectin, 50 nM antisense oligonucleotide, approximately 24 hours, primer probe set RTS 2927, relative to untreated control
substance,measurement,setting,value
407935 (antisense eA*eT*eG*e[5mC]*eA*dT*dG*dG*dT*dG*dA*dT*dG*d[5mC]*dT*eT*e[5mC]*eT*eG*eA) [compound 407935],% Inhibition (human Factor 7 mRNA),human Factor 7 mRNA; lipofectin,94%
same,% Inhibition of human Factor 7 mRNA levels,human Factor 7 mRNA; [2],72%
same,% Inhibition of human Factor 7 mRNA levels,human Factor 7 mRNA; gapmers targeted to nucleobases 15188 to 15211 of SEQ ID NO: 1 (Table 13),79%
407939 (antisense eT*eG*e[5mC]*eA*eG*d[5mC]*d[5mC]*d[5mC]*dG*dG*d[5mC]*dA*d[5mC]*d[5mC]*d[5mC]*eA*eG*e[5mC]*eG*eA) [compound 407939],% Inhibition (human Factor 7 mRNA),human Factor 7 mRNA; lipofectin,93%
same,% Inhibition of human Factor 7 mRNA levels,human Factor 7 mRNA; [2],76%
"CCATAGAACAGCTTCACAGG (sugars from the 5' end e5 d10 e5, backbone and methylation of C not given here) [ISIS 403102]",aPTT INR,"[1]; BALB/c mice, 5 mg/kg s.c. twice a week for 3 weeks",1.05
same,aPTT INR,"[1]; BALB/c mice, 10 mg/kg s.c. twice a week for 3 weeks",1.04
same,aPTT INR,"[1]; BALB/c mice, 25 mg/kg s.c. twice a week for 3 weeks",1.09
same,aPTT INR,"[1]; BALB/c mice, 50 mg/kg s.c. twice a week for 3 weeks",1.16
same,aPTT INR,"[1]; BALB/c mice, 50 mg/kg, 1 dose, 1 day after last dose",1.08
same,aPTT INR,"[1]; BALB/c mice, 50 mg/kg, 1 dose, 3 days after last dose",1.10
same,aPTT INR,"[1]; BALB/c mice, 50 mg/kg, 2 doses, 3 days after last dose",1.29
same,aPTT INR,"[1]; BALB/c mice, 50 mg/kg, 4 doses, 3 days after last dose",1.53
same,aPTT INR,"[1]; BALB/c mice, 50 mg/kg, 6 doses, 2 days after last dose",1.62
same,aPTT INR,"[1]; BALB/c mice, 50 mg/kg, 6 doses, 7 days after last dose",1.67
same,aPTT INR,"[1]; BALB/c mice, 50 mg/kg, 6 doses, 14 days after last dose",1.25
same,aPTT INR,"[1]; BALB/c mice, 50 mg/kg, 6 doses, 28 days after last dose",0.90
same,aPTT INR,"[1]; BALB/c mice, 50 mg/kg, 6 doses, 42 days after last dose",1.00
same,aPTT INR,"[1]; BALB/c mice, 50 mg/kg, 6 doses, 56 days after last dose",0.98
same,aPTT INR,"[1]; BALB/c mice, single dose 50 mg/kg, day 1",1.00
same,aPTT INR,"[1]; BALB/c mice, single dose 50 mg/kg, day 2",1.05
same,aPTT INR,"[1]; BALB/c mice, single dose 50 mg/kg, day 3",1.24
same,aPTT INR,"[1]; BALB/c mice, single dose 50 mg/kg, day 4",1.15
same,aPTT INR,"[1]; BALB/c mice, single dose 50 mg/kg, day 6",1.23
same,aPTT INR,"[1]; BALB/c mice, single dose 50 mg/kg, day 8",1.18
same,aPTT INR,"[1]; BALB/c mice, single dose 50 mg/kg, day 12",1.18
same,aPTT INR,"[1]; BALB/c mice, single dose 50 mg/kg, day 24",1.02
same,aPTT INR,"[1]; BALB/c mice, single dose 50 mg/kg, day 56",0.97
same,aPTT compared to the control,"[1]; Example 11, 5-50 mg/kg sc twice a week for 3 weeks",slightly prolonged
same,aPTT over time,"[1]; Example 13, 6 doses, day 7 to day 56",aPTT decreased
same,aPTT INR,"[1]; single dose 50 mg/kg, day 4",1.24 INR
same,aPTT INR,"[1]; single dose 50 mg/kg, day 56",0.97 INR
same,aPTT INR,"[1]; single dose 50 mg/kg, starting value (day not given, day 1 implied)",1.00 INR
same,% inhibition of murine Factor 7 protein (plasma),murine Factor 7 protein; 5 mg/kg s.c. twice a week for 3 weeks,71%
same,% inhibition of murine Factor 7 protein (plasma),murine Factor 7 protein; 10 mg/kg s.c. twice a week for 3 weeks,88%
same,% inhibition of murine Factor 7 protein (plasma),murine Factor 7 protein; 25 mg/kg s.c. twice a week for 3 weeks,99%
same,% inhibition of murine Factor 7 protein (plasma),murine Factor 7 protein; 50 mg/kg s.c. twice a week for 3 weeks,99%
same,reduction of murine Factor 7 protein over PBS control,"murine Factor 7 protein; 5-50 mg/kg sc twice a week for 3 weeks, plasma",dose-dependent reduction
same,amount of bleeding in comparison to PBS treated mice,BALB/c mice,slight decrease in the amount of bleeding
same,bleeding as compared to PBS control mice,BALB/c mice,did not significantly affect bleeding
same,Blood,"BALB/c mice; sc, 25 mg/kg",0.06 g
same,Blood,"BALB/c mice; sc, 37.5 mg/kg",0.06 g
same,Blood,"BALB/c mice; sc, 40 mg/kg",0.10 g
same,bleeding compared to PBS treated mice,"BALB/c mice; sc, 40 mg/kg",less bleeding than PBS treated mice
same,Blood,"BALB/c mice; sc, 50 mg/kg",0.10 g
same,amount of bleeding in comparison to PBS treated mice,"BALB/c mice; sc, 50 mg/kg",Bleeding was the same
